Test results reported in paper PMC12563821 (International Journal of Molecular Sciences, 2025).
Like-named read-outs stand apart in the source and are kept apart here.

How the values were obtained:
[1] = target: T1, Sirt2 (Homo sapiens, UniProt Q8IXJ6); assay: Fluorescence-based Sirt2 deacetylase inhibition assay (Reaction Biology); assay type: biochemical; settings: for IC50: fluorescence-based assay
T1 construct: comprising amino acids 50–389 (C-terminal); His-tag (N); purchased Reaction Biology Corporation (Malvern, PA, USA), in-house enzyme of the contract laboratory; host or cells: E. coli
T1 sequence (Q8IXJ6 50-389): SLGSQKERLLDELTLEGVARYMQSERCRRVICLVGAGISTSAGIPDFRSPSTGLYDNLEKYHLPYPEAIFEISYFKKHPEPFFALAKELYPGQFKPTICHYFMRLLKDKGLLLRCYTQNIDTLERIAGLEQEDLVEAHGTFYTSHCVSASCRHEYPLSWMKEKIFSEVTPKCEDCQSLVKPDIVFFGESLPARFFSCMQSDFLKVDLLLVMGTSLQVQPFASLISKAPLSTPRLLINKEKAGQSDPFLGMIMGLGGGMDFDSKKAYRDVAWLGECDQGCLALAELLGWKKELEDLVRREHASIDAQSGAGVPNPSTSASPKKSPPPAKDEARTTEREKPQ
Method: (§1) The determination of the inhibitory potency and corresponding subtype selectivity of the synthesized hybrid candidates was performed by Reaction Biology Cooperation (Malvern, PA, USA) using a fluorescence-based assay (Table 1).
Sirtuin assays. The biological activity of the test substances against the respective sirtuin enzymes was evaluated by means of a fluorescence-based assay performed by Reaction Biology Corporation (Malvern, PA, USA). The sirtuin enzymes used in the assays were all obtained from in-house sources at Reaction Biology Corporation (Malvern, PA, USA). […] Sirt2 is provided in a buffer containing 50 mM Tris/HCl (pH 7.5), 500 mM NaCl, 1 mM TCEP, and 10% glycerol (v/v). […] Sirt3 is supplied in 50 mM Tris/HCl (pH 7.5), 500 mM NaCl, and 10% glycerol (v/v). […] All proteins were provided in purified forms for use in the assays. […] After 2 h of incubation at 30 °C, the universal inhibitor nicotinamide was added in excess to completely stop the deacetylation reaction, followed by the addition of a protease-based developer to release 7-amino-4-methylcoumarin, resulting in characteristic fluorescence, which was measured after 1 h at 30 °C (excitation/emission = 360/460). A no-inhibitor control was implemented, serving as a reference for 100% enzyme activity. […] Three individual IC50 values per test compound were calculated from the corresponding three dilution series fluorescence data using sigmoidal curve fitting in Prism 8.0.2 (GraphPad Software, Boston, MA, USA), and these were averaged to determine the mean IC50 value along with the standard deviation. To assess the selectivity against Sirt1, Sirt3, and Sirt5, a 50 µM concentration of the test compound was tested in duplicate, and the inhibitory activity was expressed as the mean of the duplicates in percentage of enzyme activity, including standard deviation, relative to the no-inhibitor control (representative 100% enzyme activity).

[2] = system: T2, Sirt1; assay: Fluorescence-based Sirt1 subtype selectivity assay (Reaction Biology); assay type: biochemical; settings: 50 µM inhibitor, duplicate, relative to no-inhibitor control
T2 construct: includes amino acids 1–747 (C-terminal); His-tag (N); purchased Reaction Biology Corporation (Malvern, PA, USA), in-house enzyme of the contract laboratory; host or cells: E. coli
Method: as §1
(§2) Sirtuin assays. The biological activity of the test substances against the respective sirtuin enzymes was evaluated by means of a fluorescence-based assay performed by Reaction Biology Corporation (Malvern, PA, USA). The sirtuin enzymes used in the assays were all obtained from in-house sources at Reaction Biology Corporation (Malvern, PA, USA). Sirt1, with accession number NM_012238, includes amino acids 1–747 (C-terminal) and is tagged with an N-terminal His-tag. Sirt1 was expressed in E. coli and purified to greater than 85% as confirmed by SDS-PAGE and is supplied as a solution in 50 mM Tris/HCl (pH 7.5), 100 mM NaCl, and 10% glycerol (v/v). Sirt2 (accession number NM_012237), comprising amino acids 50–389 (C-terminal), features an N-terminal His-tag and was expressed in E. coli and finally purified to over 90% by SDS-PAGE. Sirt2 is provided in a buffer containing 50 mM Tris/HCl (pH 7.5), 500 mM NaCl, 1 mM TCEP, and 10% glycerol (v/v). Sirt3, with accession number NM_012239.3, spans amino acids 101–399 and is tagged with an N-terminal GST and expressed in E. coli and purified to greater than 85% purity by SDS-PAGE. Sirt3 is supplied in 50 mM Tris/HCl (pH 7.5), 500 mM NaCl, and 10% glycerol (v/v). Sirt5 (accession number NM_012241), consisting of amino acids 37–310 (C-terminal) and tagged with an N-terminal His-tag, was expressed in E. coli, purified to greater than 95% purity by SDS-PAGE and delivered as a solution in 50 mM Tris/HCl (pH 7.5), 500 mM NaCl, 1 mM TCEP, and 10% glycerol (v/v). All proteins were provided in purified forms for use in the assays. The respective internal assay protocol is outlined in the following: After the test substances (dissolved in DMSO) were incubated with the desired sirtuin enzyme in assay buffer (Tris-HCl, pH = 8) for 10 min at 30 °C, a substrate mixture consisting of a 7-amino-4-methylcoumarin-linked fluorogenic peptide substrate (p53 residues 379–382) and the cofactor NAD^+ was added. After 2 h of incubation at 30 °C, the universal inhibitor nicotinamide was added in excess to completely stop the deacetylation reaction, followed by the addition of a protease-based developer to release 7-amino-4-methylcoumarin, resulting in characteristic fluorescence, which was measured after 1 h at 30 °C (excitation/emission = 360/460). A no-inhibitor control was implemented, serving as a reference for 100% enzyme activity. […] Three individual IC50 values per test compound were calculated from the corresponding three dilution series fluorescence data using sigmoidal curve fitting in Prism 8.0.2 (GraphPad Software, Boston, MA, USA), and these were averaged to determine the mean IC50 value along with the standard deviation. To assess the selectivity against Sirt1, Sirt3, and Sirt5, a 50 µM concentration of the test compound was tested in duplicate, and the inhibitory activity was expressed as the mean of the duplicates in percentage of enzyme activity, including standard deviation, relative to the no-inhibitor control (representative 100% enzyme activity).

[3] = system: T3, Sirt3; assay: Fluorescence-based Sirt3 subtype selectivity assay (Reaction Biology); assay type: biochemical; settings: 50 µM inhibitor, duplicate, relative to no-inhibitor control
T3 construct: spans amino acids 101–399; GST (N); purchased Reaction Biology Corporation (Malvern, PA, USA), in-house enzyme of the contract laboratory; host or cells: E. coli
Method: as §1, §2

[4] = system: T4, Sirt5; assay: Fluorescence-based Sirt5 subtype selectivity assay (Reaction Biology); assay type: biochemical; settings: 50 µM inhibitor, duplicate, relative to no-inhibitor control
T4 construct: consisting of amino acids 37–310 (C-terminal); His-tag (N); purchased Reaction Biology Corporation (Malvern, PA, USA), in-house enzyme of the contract laboratory; host or cells: E. coli
Method: as §1, §2

[5] = MTT-based cell viability assay; design: species or system human; settings: human; HL-60 cells, 24 h incubation, MTT; read-out: IC50 acute cytotoxicity
Method: (§3) The SirReal-based Sirt2 inhibitors (FM345, FM352, FM358, FM368, RW-93, RW-95 and RW-99) were tested for potential acute cytotoxicity to human cells in an MTT-based cell viability assay. […] HL-60 cells were treated with the corresponding Sirt2 inhibitors at various concentrations and then incubated for 24 h. […] Representative cell viability results following treatment with RW-93 are shown in Figure S1 of the Supplementary Materials.
(§4) Cell viability assay. The cytotoxicity of the Sirt2 inhibitors was determined using a colorimetric MTT assay following Mosmann’s protocol. HL-60 cells (purchased from DSMZ (German Collection of Microorganisms and Cell Cultures, Deutsche Sammlung von Mikroorganismen und Zellkulturen GmbH, Braunschweig, Germany) were cultivated in RPMI medium with 10% fetal bovine serum at 37 °C with 5% CO2 atmosphere. The cells were then seeded in a 96-well plate with a concentration of 9 x 10^4 cells/well and a well volume of 99 µL. The cells were further incubated at 37 °C with 5% CO2 atmosphere for 24 h. The cells were then treated with 1 µL solution of Sirt2 inhibitors in various concentrations, which were prepared from 10 mM or 20 mM DMSO stock solutions. Negative controls were treated with 1 µL DMSO and positive controls with 1 µL of 1% Triton-X solution. Three technical replicates were performed. After incubation for 24 h, 10 µL MTT (5.0 mg/mL in PBS) were added to each well and the cells were incubated at 37 °C with 5% CO2 atmosphere for 2 h. Then 190 µL DMSO were added to each well and the plate shaken at room temperature at 600 rpm for 1 h with light exclusion. The absorbance of the MTT metabolite formazan was measured at 570 nm using the MRX Microplate Reader (Dynex Technologies, Chantilly, VA, USA). The means of the corresponding triplicates were calculated and set in relation to the 1% DMSO negative controls. The data was processed using Prism 8.0.2 (GraphPad Software, Boston, MA, USA) software and a logarithmic sigmoidal curve fitting for the calculation of the respective IC50 values was performed.

[6] = system: HL-60 cells; assay: MTT-based cell viability assay; design: species or system human
Method: as §3, §4

[7] = system: HL-60 cell line; design: method as in PMID 35441145; settings: cited from earlier work
[8] = rounded values, read-out: IC50 Sirt2
[9] = mean ± SD of three dilution series, read-out: IC50 [µM] ± SD Sirt2

| SMILES | IC50 [1, 8] [µM] | IC50 [1, 9] [µM] | Residual Enzyme Activity [%] ± SD Sirt1 [2] [%] | Residual Enzyme Activity [%] ± SD Sirt3 [3] [%] | Residual Enzyme Activity [%] ± SD Sirt5 [4] [%] | stronger Sirt2 inhibition compared to lead compound Yang_24a (fold) ([1]; ratio of Sirt2 IC50 values) | selectivity towards related subtypes Sirt1, Sirt3 and Sirt5 ([1]; Sirt2 versus Sirt1, Sirt3, Sirt5) | outperforms lead compound SirReal2 by a factor ([1]; ratio of Sirt2 IC50 values) | times more potent than hybrid precursor FM358 ([1]; ratio of Sirt2 IC50 values) | IC50 at 24 h [5] [nM] | changes in cell viability relative to DMSO control ([6]; HL-60 cells, MTT, up to 200 µM, three technical replicates) | acute toxicity to human cells ([6]; MTT assay) | toxicity in HL-60 cell line [7] |
| --- | --- | --- | --- | --- | --- | --- | --- | --- | --- | --- | --- | --- | --- |
| Cc1cc(C)nc(SCC(=O)Nc2ncc(COc3ccccc3)s2)n1 [FM345, 2-((4,6-Dimethylpyrimidin-2-yl)thio)-N-(5-(phenoxymethyl)thiazol-2-yl)acetamide] | 5.3 | 5.29 ± 0.73 | 95.6 ± 2.3 | 78.8 ± 0.8 | 94.6 ± 2.3 | – | – | – | – | > 50000 | – | – | – |
| Cc1cc(C)nc(SCC(=O)Nc2ncc(COc3ccc(NC(=O)c4cccs4)cc3)s2)n1 [FM352, N-(4-((2-(2-((4,6-Dimethylpyrimidin-2-yl)thio)acetamido)thiazol-5-yl)methoxy)phenyl)thiophene-2-carboxamide] | 0.094 | 0.0935 ± 0.0064 | 101 ± 1 | 75.8 ± 5.3 | 75.6 ± 1.1 | – | – | – | – | > 50000 | – | – | – |
| Cc1cc(C)nc(SCC(=O)Nc2ncc(COc3ccc(NC(=O)c4cnn(C)c4)cc3)s2)n1 [FM358, N-(4-((2-(2-((4,6-Dimethylpyrimidin-2-yl)thio)acetamido)thiazol-5-yl)methoxy)-phenyl)-1-methyl-1H-pyrazole-4-carboxamide] | 0.066 | 0.0656 ± 0.0044 | 71.9 ± 0.6 | 62.5 ± 0.1 | 79.8 ± 0.6 | 1.2 | – | – | – | > 50000 | – | – | – |
| Cc1cc(C)nc(SCC(=O)Nc2ncc(COc3cccc4ccccc34)s2)n1 [FM368, 2-((4,6-Dimethylpyrimidin-2-yl)thio)-N-(5-((naphthalen-1-yloxy)methyl)thiazol-2-yl)acetamide] | 6.5 | 6.51 ± 0.84 | 88.5 ± 2.7 | 85.0 ± 0.5 | 89.1 ± 1.4 | – | – | – | – | > 50000 | – | – | – |
| Cc1cc(C)nc(SCC(=O)Nc2ncc(Cc3cccc4ccccc34)s2)n1 [SirReal2] | – | – | – | – | – | – | – | – | – | – | – | – | not toxic |

More lines, main results first:

| IC50 [1, 8] [µM] | IC50 [1, 9] [µM] | Residual Enzyme Activity [%] ± SD Sirt1 [2] [%] | Residual Enzyme Activity [%] ± SD Sirt3 [3] [%] | Residual Enzyme Activity [%] ± SD Sirt5 [4] [%] | stronger Sirt2 inhibition compared to lead compound Yang_24a (fold) ([1]; ratio of Sirt2 IC50 values) | selectivity towards related subtypes Sirt1, Sirt3 and Sirt5 ([1]; Sirt2 versus Sirt1, Sirt3, Sirt5) | outperforms lead compound SirReal2 by a factor ([1]; ratio of Sirt2 IC50 values) | times more potent than hybrid precursor FM358 ([1]; ratio of Sirt2 IC50 values) | SMILES | IC50 at 24 h [5] [nM] | changes in cell viability relative to DMSO control ([6]; HL-60 cells, MTT, up to 200 µM, three technical replicates) | acute toxicity to human cells ([6]; MTT assay) | toxicity in HL-60 cell line [7] |
| --- | --- | --- | --- | --- | --- | --- | --- | --- | --- | --- | --- | --- | --- |
| 0.016 | 0.0155 ± 0.0007 | 58.2 ± 0.2 | 62.3 ± 1.2 | 53.0 ± 0.2 | 5 | more than 3000 fold | 15 | more than 4 | Cc1cc(C)nc(SCC(=O)Nc2ncc(COc3ccc(NC(=O)c4cnn(C)c4)c(Br)c3)s2)n1 [RW-93, N-(2-Bromo-4-((2-(2-((4,6-dimethylpyrimidin-2-yl)thio)acetamido)thiazol-5-yl)-methoxy)phenyl)-1-methyl-1H-pyrazole-4-carboxamide] | > 50000 | No signiﬁcant changes | ruled out | – |
| 0.049 | 0.0485 ± 0.0056 | 60.9 ± 0.7 | 64.2 ± 1.2 | 48.2 ± 1.8 | – | – | – | – | Cc1cc(C)nc(SCC(=O)Nc2ncc(COc3ccc(NC(=O)c4cnn(C)c4)c(I)c3)s2)n1 [RW-95, N-(4-((2-(2-((4,6-Dimethylpyrimidin-2-yl)thio)acetamido)thiazol-5-yl)methoxy)-2-iodophenyl)-1-methyl-1H-pyrazole-4-carboxamide] | > 50000 | – | – | – |
| – | 0.025 ± 0.0026 | 53.9 ± 0.2 | 56.1 ± 0.1 | 55.1 ± 2.0 | – | – | – | – | Cc1cc(C)nc(SCC(=O)Nc2ncc(COc3ccc(NC(=O)c4cnn(C)c4)c(Cl)c3)s2)n1 [RW-99, N-(2-Chloro-4-((2-(2-((4,6-dimethylpyrimidin-2-yl)thio)acetamido)thiazol-5-yl)methoxy)phenyl)-1-methyl-1H-pyrazole-4-carboxamide] | > 50000 | – | – | – |
